Target: T1, human mineralocorticoid receptor protein (MR) (Homo sapiens, UniProt P08235)
T1 construct: made in house; host or cells: Spodoptera frugiperda Sf21 insect cells (baculovirus)
T1 sequence (P08235 1-984): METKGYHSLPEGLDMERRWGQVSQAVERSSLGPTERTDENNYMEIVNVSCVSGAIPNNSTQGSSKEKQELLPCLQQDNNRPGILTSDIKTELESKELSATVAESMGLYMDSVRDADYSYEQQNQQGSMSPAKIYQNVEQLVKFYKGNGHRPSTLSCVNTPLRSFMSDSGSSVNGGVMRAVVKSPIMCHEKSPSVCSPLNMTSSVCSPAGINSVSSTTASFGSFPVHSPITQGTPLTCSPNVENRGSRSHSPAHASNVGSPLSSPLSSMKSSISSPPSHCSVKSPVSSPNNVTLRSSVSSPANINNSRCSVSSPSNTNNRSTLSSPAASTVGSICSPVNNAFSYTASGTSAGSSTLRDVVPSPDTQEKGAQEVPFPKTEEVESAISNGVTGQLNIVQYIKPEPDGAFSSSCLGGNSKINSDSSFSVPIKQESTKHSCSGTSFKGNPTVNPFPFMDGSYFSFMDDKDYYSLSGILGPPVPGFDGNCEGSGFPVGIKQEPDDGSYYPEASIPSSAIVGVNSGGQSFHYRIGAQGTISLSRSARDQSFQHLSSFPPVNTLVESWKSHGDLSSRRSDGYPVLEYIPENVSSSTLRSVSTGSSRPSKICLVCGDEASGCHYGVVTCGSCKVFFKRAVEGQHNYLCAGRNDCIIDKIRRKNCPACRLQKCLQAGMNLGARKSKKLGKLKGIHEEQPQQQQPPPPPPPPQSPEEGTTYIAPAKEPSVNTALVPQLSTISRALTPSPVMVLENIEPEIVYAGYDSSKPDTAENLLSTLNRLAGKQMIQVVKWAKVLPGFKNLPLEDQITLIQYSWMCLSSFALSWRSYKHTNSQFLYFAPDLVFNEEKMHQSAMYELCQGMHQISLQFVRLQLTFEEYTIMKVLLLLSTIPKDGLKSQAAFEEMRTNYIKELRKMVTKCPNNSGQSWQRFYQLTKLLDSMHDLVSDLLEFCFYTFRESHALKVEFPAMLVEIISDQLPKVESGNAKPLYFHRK
Assay: Mineralocorticoid receptor binding assay ([3H]aldosterone competition, MR lysate)
Conditions: baculovirus-expressed MR lysate from Sf21 cells; 2-4 nM [3H]aldosterone; 16 hours at 4° C.; Cheng-Prusoff from IC50
Experimental: A baculovirus expression plasmid comprising cDNA encoding the human mineralocorticoid receptor protein (MR) was prepared using standard techniques. See e.g. E. A. Allegretto et. al. 268 J. Biol. Chem., 26625 (1993); G. Srinivasan and B. Thompson, 4 Mol. Endo., 209 (1990); and D. R. O'Reilly et. al., in “Baculovirus Expression Vectors”, D. R. O'Reilly et. al., eds., W. H. Freeman, New York, N.Y., pp. 139-179 (1992). That expression plasmid was co-transfected together with wild type Autographa californica multiple nuclear polyhedrosis virus DNA into Spodoptera frugiperda-21 (Sf-21) cells to generate recombinant virus comprising MR cDNA. See e.g. O'Reilly, D. R., Miller, L. K., Luckow, V. A., Regulation of expression of a baculovirus ecdysteroid UDP glucosyltransferase gene. “Baculovirus Expression Vectors.” WH Freeman, NY, 139-179 (1992). That recombinant virus comprising MR cDNA was collected.
A suspension culture of uninfected Sf21 cells was grown to a density of 1.2×10^6 cells/ml and then infected with the recombinant virus comprising MR cDNA at a multiplicity of infection of 2. Those infected Sf21 cells were incubated for 48 hours and then collected by centrifugation at 1000×g for 10 minutes at 4° C. The resulting cell pellets were resuspended in lysis buffer (50 mM Potassium Phosphate buffer, pH 7.0, 10 mM Monothioglycerol, 5 mM DTT, 20 mM Sodium Molybdate, 1 mM PMSF, 1 μg/mL aprotinin, and 10 μg/mL leupeptin) and incubated for 15 minutes on ice. Those resuspended cell pellets were homogenized using a Dounce homogenizer and a B pestle. A volume of 2 M KCl was added to the homogenized cell pellets to a final concentration of 0.4 M. The resulting MR lysates were centrifuged at 100,000×g for 60 min at 4° C. and stored for use in binding assays.
Binding assay samples were prepared in separate mini-tubes in a 96-well format at 4° C. Each binding assay sample was prepared in a volume of 250 μl of MR-Assay Buffer (10% glycerol, 10 mM sodium phosphate, 10 mM potassium fluoride, 20 mM sodium molybdate, 0.25 mM CHAPS, 2 mM DTT, (adjusted to pH 7.35)) containing 5-10 μg of MR lysate; 2-4 nM of [^3H]aldosterone; unlabeled aldosterone; and a test compound. Each test compound was assayed at several different concentrations, ranging from 0 to 10^−5 M and each was tested in the presence and in the absence of several different concentrations of unlabeled aldosterone. Each concentration of each test compound was assayed in triplicate. The assay samples were incubated for 16 hours at 4° C.
After incubation, 200 μl of 6.25% hydroxylapatite in assay buffer was added to each assay sample to precipitate the protein. The assay samples were then centrifuged and the supernatants were discarded. The resulting pellets were washed twice with assay buffer lacking DTT. Radioactivity in counts per minute (CPM) of each washed pellet was determined by liquid scintillation counter (MicroBeta™, Wallach).
Specific binding for a particular sample was calculated using the equation: (Sample CPM)−(Average Non-specific CPM) Average Non-specific CPM was defined as the amount of radioactivity from samples comprising an excess (i.e. 1000 nM) of unlabeled aldosterone. IC50 values (the concentration of test compound required to decrease specific binding by 50%) were determined using the log-logit (Hill) method. Ki values were determined using the Cheng-Prusoff equation using a previously determined Kd value for aldosterone: Ki=IC50/(1+[L]/Kd) [L]=concentration of labeled aldosterone Kd=dissociation constant of labeled aldosterone Ki values for certain mineralocorticoid receptor binding compounds are shown in Table 1.

Compound	Ki
O=C1Nc2ccc(-c3cccc(C(F)(F)F)c3)c(Cl)c2C(c2ccc(F)cc2)O1 (racemic) [Compound 118, (±)-5-Chloro-4-(4-fluorophenyl)-1,4-dihydro-6-[3-(trifluoromethyl)phenyl]-2H-3,1-benzoxazin-2-one]	150 nM
CC1(C)OC(=O)Nc2ccc(-c3cccc(C#N)c3)c(Cl)c21 [Compound 101, 5-Chloro-6-(3-cyanophenyl)-1,4-dihydro-4,4-dimethyl-2H-3,1-benzoxazin-2-one]	98 nM
CC1(C)OC(=O)Nc2ccc(-c3cccc(C(F)(F)F)c3)c(Cl)c21 [Compound 102, 5-Chloro-1,4-dihydro-4,4-dimethyl-6-[3-(trifluoromethyl)phenyl]-2H-3,1-benzoxazin-2-one]	440 nM
CC1(C)OC(=S)Nc2ccc(-c3cccc(C(F)(F)F)c3)c(Cl)c21 [Compound 104, 5-Chloro-1,4-dihydro-4,4-dimethyl-6-[3-(trifluoromethyl)phenyl]-2H-3,1-benzoxazin-2-thione]	52 nM

More lines, in order of falling Ki, values ahead:

Ki	Compound
375 nM	CC(=O)c1cccc(-c2ccc3c(c2Cl)C(C)(C)OC(=O)N3)c1 [Compound 103, 6-(3-Acetylphenyl)-5-chloro-1,4-dihydro-4,4-dimethyl-2H-3,1-benzoxazin-2-one]
45 nM	CC1OC(=S)Nc2ccc(-c3cccc(C(F)(F)F)c3)c(Cl)c21 (racemic) [Compound 111, (±)-5-Chloro-1,4-dihydro-4-methyl-6-[3-(trifluoromethyl)phenyl]-2H-3,1-benzoxazin-2-thione]

Source: US7442696B2, “Mineralocorticoid receptor modulator compounds, processes for their preparation, and their uses” (Ligand Pharmaceuticals, Inc., priority 2004, dated 2008)
